Literature values in patent publication US20230165842A1, “NEW USES” (priority 2020, published 2023).
Like-named read-outs stand apart in the source and are kept apart here.

Assays:
[1] = test system: SARS-CoV-2; set-up: Reducing Viral propagation: concentration or dose not given beside the values; conditions: Vero E6; MOI=0.0005
[2] = test system: SARS-CoV-2; conditions: Calu-3
[3] = test system: Calu-3
[4] = test system: SARS-CoV-2; conditions: Vero E6
[5] = test system: Vero E6
[6] = test system: SARS-CoV-2; conditions: concentration dependent; data not shown
[7] = test system: adults with confirmed SARS-CoV-2 infection
[8] = test system: Covid positive patients
[9] = test system: COVID-19 cases; conditions: conclusion for the named statins
[10] = test system: dysgeusia in COVID positive patients
[11] = test system: patients hospitalized with COVID-19; conditions: With Calcifediol Treatment (n = 50)
[12] = test system: SARS-CoV-2; conditions: Vero cells; 2 h pre-treatment; vs DMSO control; p<0.0001
[13] = test system: SARS-CoV-2
[14] = test system: OC43
[15] = test system: OC43; conditions: maximal across all concentrations
[16] = test system: hospitalised Covid-19 patients
[17] = test system: COVID-19 ARDS patients
[18] = test system: SARS-CoV-2; remark: listed apart in the source
[19] = test system: COVID-19-induced pulmonary fibrosis
[20] = test system: SARS-CoV-2 Spike pseudotyped virus; conditions: ACE2h HEK293T cells; Control = 1
[21] = test system: SARS-CoV-2; conditions: Vero E6; for IC50: 2 h pre-treatment, 24 h
[22] = test system: human coronavirus (HCoV)-229E; conditions: MRC5 cells
[23] = test system: SARS-CoV-2; conditions: treated 24 hours prior to infection; read-out: IC50 in Calu-3
[24] = test system: SARS-CoV-2; conditions: Vero-E6; MOI 0.005
[25] = test system: Vero E6 cells; conditions: Vero E6
[26] = six weeks after initiation of therapy

Compound: NCCCCNCCCN [Reference Compound 2, spermidine]
- IC50 [1]: 149 µM
- Reducing Viral propagation [1]: 85%

Compound: C[C@H]1[C@H](OC(=O)CCC(=O)O)O[C@@H]2O[C@@]3(C)CC[C@H]4[C@H](C)CC[C@@H]1[C@@]24OO3 [Compound 145, artesunate]
- IC50 [2]: 1.76 µM
- Selectivity Index (SI) [2]: >56.82
- CC50 [3]: > 100 µM
- IC50 [4]: 53.1 µM
- Selectivity Index (SI) [4]: >1.885
- CC50 [5]: > 100 µM

Compound: NC1(c2ccc(-c3nc4ccn5c(=O)[nH]nc5c4cc3-c3ccccc3)cc2)CCC1 [Compound 173, mk-2206]
- IC50 [1]: 0.09 µM
- Reducing Viral propagation [1]: 88%

Compound: CC(=O)OCOC(=O)CN(CC(=O)OCOC(C)=O)c1ccccc1OCCOc1ccccc1N(CC(=O)OCOC(C)=O)CC(=O)OCOC(C)=O [compound 15, BAPTA-AM]
- inhibition of SARS-CoV-2 replication [6]: significantly inhibit

Compound: COCCCC/C(=N\OCCN)c1ccc(C(F)(F)F)cc1 [Compound 34, fluvoxamine]
- serious adverse event (number) ([7]; fluvoxamine group, placebo 6): 1
- other adverse events (number) ([7]; fluvoxamine group, placebo 12): 11
- Absolute difference (95% CI), any nonzero value ([7]; fluvoxamine vs placebo): −8.3%
- Absolute difference (95% CI), clinical deterioration ([7]; fluvoxamine vs placebo): 8.7%
- Absolute difference (95% CI), clinical status 0 (none) ([7]; fluvoxamine vs placebo): 8.3%
- Absolute difference (95% CI), clinical status mean ([7]; fluvoxamine vs placebo): −0.22
- Clinical status on 7-point scale, mean (SD) ([7]; n = 80): 0
- Clinical status on 7-point scale: 0 (none), No. (%) ([7]; n = 80): 80 (100)
- Clinical status on 7-point scale: Any nonzero value, No. (%) ([7]; n = 80): 0
- Primary end point Clinical deterioration (met both criteria), No. (%) ([7]; n = 80, 100 mg 3 times daily for 15 days): 0
- incidence of subsequent hospitalization ([8]; 0 of 65, vs 12.5% with observation): 0%
- ongoing symptoms present at day 14 ([8]; 0 of 65, vs 60% with observation alone): 0%
- serious adverse events ([8]; 50 mg twice daily for 14 days): No serious adverse events
- Respiratory Rate ([8]; Day 1, N = 65): 17.7 ± 2.9
- Respiratory Rate ([8]; Day 7, N = 65): 12.9 ± 1.6
- Hospitalized within 14 days (patients) ([8]; N = 65): 0
- ICU care and/or Death (patients) ([8]; N = 65): 0
- Symptoms at Day 14: 1-3 (patients) ([8]; N = 65): 0
- Symptoms at Day 14: 4-6 (patients) ([8]; N = 65): 0
- Symptoms at Day 14: None (patients) ([8]; N = 65): 65
- Symptoms at Day 14: ≥7 (patients) ([8]; N = 65): 0
- adverse events leading to early discontinuation ([8]; human, in vivo): No adverse events led to early discontinuation

Compound: CC(C)c1c(C(=O)Nc2ccccc2)c(-c2ccccc2)c(-c2ccc(F)cc2)n1CC[C@@H](O)C[C@@H](O)CC(=O)O [Compound 8, atorvastatin]
- mortality in patients infected with COVID-19 [9]: may reduce mortality

Compound: C[C@]12C=CC(=O)C=C1CC[C@H]1[C@@H]3C[C@@H](O)[C@](O)(C(=O)CO)[C@@]3(C)C[C@H](O)[C@@]12F [Compound 72, triamcinolone]
- bitter identified: NO (patients) ([10]; Cases (n = 60), day 5): 7
- bitter identified: YES (patients) ([10]; Cases (n = 60), day 5): 53
- salt identified: NO (patients) ([10]; Cases (n = 60), day 5): 10
- salt identified: YES (patients) ([10]; Cases (n = 60), day 5): 50
- sour identified: NO (patients) ([10]; Cases (n = 60), day 5): 10
- sour identified: YES (patients) ([10]; Cases (n = 60), day 5): 50
- sweet identified: NO (patients) ([10]; Cases (n = 60), day 5): 5
- sweet identified: YES (patients) ([10]; Cases (n = 60), day 5): 55
- recovery of sense of smell taste ([10]; all anosmia and dysgeusia cases): recovered their sense of smell taste within a week
- improved for bitter ([10]; oral paste, fifth day): 83.33%
- improved for salty taste ([10]; oral paste, fifth day): 83.33%
- improved for sour taste ([10]; oral paste, fifth day): 83.34%
- improved for sweet ([10]; oral paste, fifth day): 91.67%

Compound: C=C1CC[C@H](O)C/C1=C/C=C1\CCC[C@]2(C)[C@@H]([C@H](C)CCCC(C)(C)O)CC[C@@H]12 [Calcifediol, calcifediol]
- Not requiring ICU, n (%) [11]: 49 (98)
- Requiring ICU, n (%) [11]: 1 (2)

Compound: CCN(CCO)CCCC(C)Nc1ccnc2cc(Cl)ccc12 (centres unmarked) [Reference Compound 5, hydroxychloroquine]
- IC50 [2]: 103 µM
- Selectivity Index (SI) [2]: >0.972
- CC50 ([3]; Calu-3): > 100 µM
- decrease in viral load [12]: 26.9 fold
- IC50 [4]: 1.07 µM
- Selectivity Index (SI) [4]: >93.55
- CC50 ([5]; Vero E6): > 100 µM

Compound: O=C(Nc1ccc([N+](=O)[O-])cc1Cl)c1cc(Cl)ccc1O [Reference Compound 3, niclosamide]
- IC50 [1]: 17 µM
- Reducing Viral propagation [1]: >99%

Compound: CS(=O)(=O)CCNCc1ccc(-c2ccc3ncnc(Nc4ccc(OCc5cccc(F)c5)c(Cl)c4)c3c2)o1 [Compound 187, lapatinib]
- SARS-CoV-2 viral replication [13]: strongly inhibited
- toxicity ([13]; at doses readily achievable in human tissues, data not shown): without any toxicity
- inhibited SARS-CoV-2 replication ([13]; data not shown): over 50,000 fold
- OC43 viral replication [14]: strongly inhibited
- Max % Inhibition of Viral Killing [15]: 63.99%

Compound: CC(C)c1nc(N(C)S(C)(=O)=O)nc(-c2ccc(F)cc2)c1/C=C/[C@@H](O)C[C@@H](O)CC(=O)O [Compound 64, rosuvastatin]
- mortality in patients infected with COVID-19 [9]: may reduce mortality

Compound: COc1cc(Nc2ncc(F)c(Nc3ccc4c(n3)N(COP(=O)(O)O)C(=O)C(C)(C)O4)n2)cc(OC)c1OC [Compound 35, fostamatinib]
- primary endpoint of safety ([16]; Phase II, oral twice-daily plus SOC for 14 days): met the primary endpoint of safety
- improvement in clinical status ([16]; by day 15 and 29): superior to placebo
- outcome of intubated patients on mechanical ventilation ([16]; two patients receiving drug): improved in seven days and were off the ventilator
- chances of occurrence of serious adverse events ([16]; vs placebo): halved
- number of days in the ICU ([16]; vs seven in the placebo group): three
- deaths ([16]; vs three deaths in the placebo arm): No deaths

Compound: COc1cc([C@@H]2c3cc4c(cc3[C@@H](O[C@@H]3O[C@@H]5CO[C@@H](C)O[C@H]5[C@H](O)[C@H]3O)[C@H]3COC(=O)[C@H]23)OCO4)cc(OC)c1O [Compound 137, etoposide]
- PaO2/FiO2 ratio improved, average ([17]; 11 patients, 50-150 mg/m^2): 195%
- patients fully recovered and discharged home ([17]; of 11 patients): Nine
- patients needed mechanical ventilation ([17]; of 11 patients): Three
- patients died ([17]; of 11 patients, thrombotic complications): Two

Compound: saracatinib [Compound 112]
- SARS-CoV-2 viral replication [13]: inhibition also observed
- OC43 viral replication [14]: inhibition also observed
- Max % Inhibition of Viral Killing [15]: 22.48%

Compound: OCc1c[nH]c2ccccc12 [Compound 110, indole-3-carbinol]
- SARS-CoV-2-induced CPE ([18]; 16.67 and 5.56 μM): not affected
- reduced the SARS-CoV-2-induced CPE ([18]; Vero E6, 50 μM, 72 h post-infection, vs DMSO): about 60%
- virus yield reduction ([18]; at the various concentrations tested): 2 to 4 log

Compound: COC(=O)c1ccc2c(c1)NC(=O)/C2=C(\Nc1ccc(N(C)C(=O)CN2CCN(C)CC2)cc1)c1ccccc1 [Compound 134, nintedanib]
- serum level of alanine aminotransferase (adverse event) ([19]; 300 mg/day oral, managed with reduction to 200 mg/day): became elevated
- Ground-glass opacities of the lung (CT) ([19]; FIG. 29-D): mildly attenuated without further progression of pulmonary fibrosis
- respiratory condition and exercise tolerance ([19]; after three months of rehabilitation with drug and tapering of prednisolone): improved
- other side effects ([19]; in vivo): No other side effects
- vital capacity [19, 26]: 1.27 L
- vital capacity per predicted [19, 26]: 61.7%

Compound: Clc1ccc2c(c1)CCc1cccnc1C2=C1CCNCC1 [Compound 80, desloratadine]
- pseudotype entry (mean) [20]: 0.3

Compound: CCN(CC)CCCC(C)Nc1ccnc2cc(Cl)ccc12 (centres unmarked) [Reference Compound 1, chloroquine]
- IC50 ([21]; MOI 0.004): 42 µM
- IC50 ([21]; MOI 0.01): 46.8 µM
- EC50 [22]: 5 µM
- reduction of the viral titer [22]: 60%
- IC50 [23]: 69.2 µM
- EC50 [24]: 1.36 µM

Compound: NCCOB(c1ccccc1)c1ccccc1 [compound 16]
- inhibition of SARS-CoV-2 replication [6]: significantly inhibit

Compound: O=C1NCN(c2ccccc2)C12CCN(CCCC(c1ccc(F)cc1)c1ccc(F)cc1)CC2 [Compound 158, fluspirilene]
- Selectivity Index (SI) ([21]; MOI 0.004): 9.61
- IC50 ([21]; MOI 0.004): 6.36 µM
- Selectivity Index (SI) ([21]; MOI 0.01): >5.71
- IC50 ([21]; MOI 0.01): 5.32 µM
- CC50 ([25]; listed as MOI 0.004): 30.3 µM
- CC50 ([25]; listed as MOI 0.01): 30.3 µM

Compound: COc1ccc2nc3cc(Cl)ccc3c(Nc3cc(CN4CCCC4)c(O)c(CN4CCCC4)c3)c2n1 [Reference Compound 4, pyronaridine]
- IC50 [2]: 6.41 µM
- Selectivity Index (SI) [2]: 6.718
- CC50 ([3]; Calu-3): 43.1 µM
- IC50 [4]: 1.08 µM
- Selectivity Index (SI) [4]: 34.22
- CC50 ([5]; Vero E6): 37.1 µM

Compound: maraviroc [Compound 170]
- decrease in viral load [12]: 30.7 fold
